Experimental data from patent US20230089368A1, “POLYAROMATIC UREA DERIVATIVES AND THEIR USE IN THE TREATMENT OF MUSCLE DISEASES” (ANAGENESIS BIOTECHNOLOGIES S.A.S., priority 2019, published 2023).
pEC50: −log10 of the molar value.

What was measured:
[1] = system: muscle progenitors (hMP) from DMD hiPSC or WT hiPSC; experiment: Myotube assay: myogenic activity (total myotube area per well); format: cell-based, human; conditions: Homo sapiens, 72 h, myotube assay, compounds incubated 3 days; for Emax: read-out: MA (normalized Myotube Area, efficacy)
Method: An in vitro assay for assessing the efficacy of compounds for use in treating, ameliorating, delaying, curing and/or preventing a disease or condition associated with muscle cells and/or satellite cells is described in example 78. Herein, the generation of myotubes and satellite cells after adding a compound to a myotube assay workflow is assessed. Said myotube assay workflow is derived from wild-type or DMD human induced pluripotent stem cells (WT hiPSC or DMD hiPSC). Before the addition of said compound, the assay comprises satellite-like cells, but no significant amount of myotubes.
(§1) The efficacy of said compound for use in treating, ameliorating, delaying, curing and/or preventing a disease or condition associated with muscle cells and/or satellite cells is positively correlated with the generation of myotubes (i.e. the increase of the area occupied by myotubes on the assay) and/or satellite cells (i.e. the increase of the number of satellite cells) in the assay after adding said compound. The generation of myotubes by the addition of said compound is expressed as the EC50 value, the concentration of said compound that corresponds with the half-maximal generation of myotubes, and the MA (normalized myotube area) value, the normalized area occupied by generated myotubes on the assay. […] Since muscle cells are formed from myotubes during myogenesis, the generation of myotubes in the assay is a good indicator of the ability of said compound to induce the formation of functional muscle cells in vivo. The number of satellite cells is measured as the percentage of Pax7 positive cells, relative to the total number of cells in the assay, as shown in FIG. 3. The percentage of Pax7 is a good indicator of the ability of said compound to induce the formation of satellite cells which are able to play a role in muscle repair and regeneration in vivo.
(§2) DMD human induced pluripotent stem cells (hereafter “DMD hiPSC”), generated from the NORM-1 hiPSC WT cell line by gene editing, or WT human induced pluripotent stem cells (hereafter “WT hiPSC”), being NORM-1 hiPSC wt cell line, have been differentiated according to Chal et al. 2015, 2016, to produce muscle progenitors (hereafter “hMP”). The hMP population contains satellite-like cells (i.e Pax7-positive cells) and satellite cells' progenies (i.e. Myogenin-positive cells).
(§3) FIG. 1 provides an example of a Myotube assay workflow. At day 0, hMP are thawed and 3.1 million cells are plated into a T75-flask coated with hESC-qualified Matrigel™ (Corning) in SkGM proliferating medium (PromoCells), supplemented with 5 μM Y-27632 (Tocris Bioscience). On day 2, SkGM proliferating medium is refreshed. On day 4, hMP are harvested and transferred into a 384-well plate coated with collagen type I at a density of 3500 cells/well in a DMEM-based medium, containing 5% of knockout serum replacement (Gibco), 1% PenStrep (Gibco), 1% MEM NEAA (Gibco) and 0.1 mM 2-mercaptoethanol (Gibco) (hereafter “K5 medium”) and 5 μM Y-27632. Compounds to be tested are then added in the medium and incubated for 3 days at 37° C. On day 7, cells are fixed and immunostained. For example, myotubes (alpha-actinin staining) and satellite-like (Pax7 staining) cells can be analyzed for total myotube area per well or Pax7-positive cell quantification.
(§4) DMD hMP were put in the Myotube assay according to the workflow described in Example 2.1. In particular, compound (i) was added at concentrations ranging from 1.5 nM to 30 μM, starting from day 4. hMP were cultivated for three more days in presence of compound (i), then fixed and analyzed for quantification of total myotube area per well. Duplicates of each condition were averaged.
Qualitative scale: ++++: EC50<500 nM; +++: 500 nM≤EC50<1000 nM; ++: 1000 nM≤EC50<5000 nM; +: EC50≥5000 nM; +++: MA≥75%; ++: 50%≤MA<75%; +: 25%≤MA<50%.

[2] = system: satellite-like cells (Pax7-positive cells) in hMP; experiment: Myotube assay: Pax7-positive (satellite-like) cell quantification; format: cell-based, human; parameters: key to Pax7% (pool of Pax7-positive cells) / Pax7: −: Depletes the pool of cells, while positively affects the myotubes; +: Maintains or increases the pool of cells, with at least 1 of the highest concentration known to be cytotoxic; ++: Maintains or increases the pool of cells, without any toxicity; conditions: myotube assay, compounds incubated 3 days
From the text: as §1, §2, §3
as §4, with “percentage” for “quantification”, “Pax7-positive cells and nuclei number.” for “total myotube area per well.”
(−): Depletes the pool of cells, while positively affects the myotubes; (+): Maintains or increases the pool of cells, with at least 1 of the highest concentration known to be cytotoxic; and (++) Maintains or increases the pool of cells, without any toxicity.

pEC50 ([1]; 10 points dose-response 1.5 nM to 30 μM, read-out: EC50 (myogenic activity, half-maximal generation of myotubes)) | SMILES | Emax [1] [%] | Pax7% (pool of Pax7-positive cells) [2]
 | CC(C)c1cc(Oc2ccnc3[nH]c(=O)cnc23)ccc1NC(=O)Nc1cc(C(C)(C)C)nn1-c1ccccc1 [(bk), 1-(3-(tert-butyl)-1-phenyl-1H-pyrazol-5-yl)-3-(2-isopropyl-4-((3-oxo-3,4-dihydropyrido[2,3-b]pyrazin-8-yl)oxy)phenyl)urea] | ≥ 75 | ++
 | CC(C)(C)c1cc(NC(=O)Nc2ccc(Oc3ccncc3)cc2)n(-c2ccccc2)n1 [(bl), 1-(3-(tert-butyl)-1-phenyl-1H-pyrazol-5-yl)-3-(4-(pyridin-4-yloxy)phenyl)urea] | 50 to 75 | +
 | CSc1cc(Oc2ccnc3[nH]c(=O)cnc23)ccc1NC(=O)Nc1cc(C(C)(C)C)nn1-c1ccc2ncccc2c1 [(bm), 1-(3-(tert-butyl)-1-(quinolin-6-yl)-1H-pyrazol-5-yl)-3-(2-(methylthio)-4-((3-oxo-3,4-dihydropyrido[2,3-b]pyrazin-8-yl)oxy)phenyl)urea] | ≥ 75 | +
 | CSc1cc(Oc2ccnc3[nH]c(=O)cnc23)ccc1NC(=O)Nc1cc(C(C)(C)C)nn1C1CCCCC1 [(bn), 1-(3-(tert-butyl)-1-cyclohexyl-1H-pyrazol-5-yl)-3-(2-(methylthio)-4-((3-oxo-3,4-dihydropyrido[2,3-b]pyrazin-8-yl)oxy)phenyl)urea] | 50 to 75 | ++
 | CC(C)(C)c1cc(NC(=O)Nc2ccc(Oc3ccnc4[nH]c(=O)cnc34)c(F)c2F)n(-c2ccccc2)n1 [(bo), 1-(3-(tert-butyl)-1-phenyl-1H-pyrazol-5-yl)-3-(2,3-difluoro-4-((3-oxo-3,4-dihydropyrido[2,3-b]pyrazin-8-yl)oxy)phenyl)urea] | ≥ 75 | +
 | CSc1cc(Oc2ccnc(NC(=O)CN(C)C(=O)OC(C)(C)C)c2)ccc1NC(=O)Nc1cc(C(C)(C)C)nn1-c1ccccc1 [(bp), tert-butyl (2-((4-(4-(3-(3-(tert-butyl)-1-phenyl-1H-pyrazol-5-yl)ureido)-3-(methylthio)phenoxy)pyridin-2-yl)amino)-2-oxoethyl)(methyl)carbamate] | ≥ 75 | +
> 6.30 | CNCC(=O)Nc1cc(Oc2ccc(NC(=O)Nc3cc(C(C)(C)C)nn3-c3ccccc3)c(SC)c2)ccn1 [(bq), N-(4-(4-(3-(3-(tert-butyl)-1-phenyl-1H-pyrazol-5-yl)ureido)-3-(methylthio)phenoxy)pyridin-2-yl)-2-(methylamino)acetamide] | ≥ 75 | +
 | CNC(=O)c1cc(Oc2ccc(NC(=O)Nc3cc(C(C)(C)C)nn3-c3ccccc3)c(SC)c2)ccn1 [(br), 4-(4-(3-(3-(tert-butyl)-1-phenyl-1H-pyrazol-5-yl)ureido)-3-(methylthio)phenoxy)-N-methylpicolinamide] | ≥ 75 | ++
 | CSc1cc(Oc2ccnc3nccnc23)ccc1NC(=O)Nc1cc(C(C)(C)C)nn1-c1ccccc1 [(bs), 1-(3-(tert-butyl)-1-phenyl-1H-pyrazol-5-yl)-3-(2-(methylthio)-4-(pyrido[2,3-b]pyrazin-8-yloxy)phenyl)urea] | ≥ 75 | ++
 | CC(C)(C)c1cc(NC(=O)Nc2cc(F)c(Oc3ccnc4[nH]c(=O)cnc34)cc2F)n(-c2ccccc2)n1 [(bt), 1-(3-(tert-butyl)-1-phenyl-1H-pyrazol-5-yl)-3-(2,5-difluoro-4-((3-oxo-3,4-dihydropyrido[2,3-b]pyrazin-8-yl)oxy)phenyl)urea] | ≥ 75 | ++
 | CSc1cc(Oc2cccc3[nH]c(=O)cnc23)ccc1NC(=O)Nc1cc(C(C)(C)C)nn1-c1ccccc1 [(bu), 1-(3-(tert-butyl)-1-phenyl-1H-pyrazol-5-yl)-3-(2-(methylthio)-4-((2-oxo-1,2-dihydroquinoxalin-5-yl)oxy)phenyl)urea] | 25 to 50 | ++
 | CSc1cc(Oc2ncnc3[nH]c(=O)cnc23)ccc1NC(=O)Nc1cc(C(C)(C)C)nn1-c1ccccc1 [(bv), 1-(3-(tert-butyl)-1-phenyl-1H-pyrazol-5-yl)-3-(2-(methylthio)-4-((7-oxo-7,8-dihydropteridin-4-yl)oxy)phenyl)urea] | ≥ 75 | ++
 | CSc1cc(Oc2ccnc3[nH]c(=O)cnc23)ccc1NC(=O)Nc1cc(C(C)(C)C)nn1-c1cccc(F)c1 [(bw), 1-(3-(tert-butyl)-1-(3-fluorophenyl)-1H-pyrazol-5-yl)-3-(2-(methylthio)-4-((3-oxo-3,4-dihydropyrido[2,3-b]pyrazin-8-yl)oxy)phenyl)urea] | ≥ 75 | ++
 | CSc1cc(Oc2ccnc3[nH]c(=O)cnc23)ccc1NC(=O)Nc1cc(C(C)(C)C)no1 [(bx), 1-(3-(tert-butyl)isoxazol-5-yl)-3-(2-(methylthio)-4-((3-oxo-3,4-dihydropyrido[2,3-b]pyrazin-8-yl)oxy)phenyl)urea] | ≥ 75 | ++
 | CSc1cc(Oc2ccnc3c2CCC(=O)N3)ccc1NC(=O)Nc1cc(C(C)(C)C)nn1-c1ccc(C)cc1 [(by), 1-(3-(tert-butyl)-1-(p-tolyl)-1H-pyrazol-5-yl)-3-(2-(methylthio)-4-((7-oxo-5,6,7,8-tetrahydro-1,8-naphthyridin-4-yl)oxy)phenyl)urea] | ≥ 75 | +
 | CSc1cc(Oc2ccnc3c2CCC(=O)N3)ccc1NC(=O)Nc1cc(C(C)(C)C)nn1-c1cccc(Cl)c1 [(bz), 1-(3-(tert-butyl)-1-(3-chlorophenyl)-1H-pyrazol-5-yl)-3-(2-(methylthio)-4-((7-oxo-5,6,7,8-tetrahydro-1,8-naphthyridin-4-yl)oxy)phenyl)urea] | ≥ 75 | +
 | CCC(C)c1cc(NC(=O)Nc2ccc(Oc3ccnc4[nH]c(=O)cnc34)cc2F)n(-c2ccccc2)n1 (stereo not drawn) [(c), 1-(3-(sec-butyl)-1-phenyl-1H-pyrazol-5-yl)-3-(2-fluoro-4-((3-oxo-3,4-dihydropyrido[2,3-b]pyrazin-8-yl)oxy)phenyl)urea] | 50 to 75 | +
 | CSc1cc(Oc2ccnc3[nH]c(=O)cnc23)ccc1NC(=O)Nc1nc(C(C)(C)C)cs1 [(ca), 1-(4-(tert-butyl)thiazol-2-yl)-3-(2-(methylthio)-4-((3-oxo-3,4-dihydropyrido[2,3-b]pyrazin-8-yl)oxy)phenyl)urea] | ≥ 75 | ++
 | CSc1cc(Oc2ccnc3c2CCC(=O)N3)ccc1NC(=O)Nc1ncc(C(C)(C)C)s1 [(cb), 1-(5-(tert-butyl)thiazol-2-yl)-3-(2-(methylthio)-4-((7-oxo-5,6,7,8-tetrahydro-1,8-naphthyridin-4-yl)oxy)phenyl)urea] | ≥ 75 | ++
